This experiment deals with URAT-1 transporter (Homo sapiens (Human), UniProt Q96S37). The experiment in a line: URAT-1 inhibitor activity: [14C]-uric acid uptake in CHO-URAT1(L)GFP#8 (CHO#8) cells, scintillation proximity. Type of experiment: cell-based. The settings on record: inhibition of [14C]-uric acid (30 nM) uptake into CHO#8 cells; compound 0 to 10 μM; 4 parameter logistic fit. The method, boiled down: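 CHO cells stably expressing human URAT1 long isoform–eGFP fusion, pre-incubated 1 h in chloride-containing buffer pH 7.4, then given 30 nM [14C]-uric acid with compound (0–10 μM, 0.25% DMSO) in chloride-free gluconate buffer pH 7.4. Uptake measured by scintillation proximity on Cytostar plates.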
Chain of URAT-1 transporter (Q96S37 other isoform, or with tags, fused parts or gaps): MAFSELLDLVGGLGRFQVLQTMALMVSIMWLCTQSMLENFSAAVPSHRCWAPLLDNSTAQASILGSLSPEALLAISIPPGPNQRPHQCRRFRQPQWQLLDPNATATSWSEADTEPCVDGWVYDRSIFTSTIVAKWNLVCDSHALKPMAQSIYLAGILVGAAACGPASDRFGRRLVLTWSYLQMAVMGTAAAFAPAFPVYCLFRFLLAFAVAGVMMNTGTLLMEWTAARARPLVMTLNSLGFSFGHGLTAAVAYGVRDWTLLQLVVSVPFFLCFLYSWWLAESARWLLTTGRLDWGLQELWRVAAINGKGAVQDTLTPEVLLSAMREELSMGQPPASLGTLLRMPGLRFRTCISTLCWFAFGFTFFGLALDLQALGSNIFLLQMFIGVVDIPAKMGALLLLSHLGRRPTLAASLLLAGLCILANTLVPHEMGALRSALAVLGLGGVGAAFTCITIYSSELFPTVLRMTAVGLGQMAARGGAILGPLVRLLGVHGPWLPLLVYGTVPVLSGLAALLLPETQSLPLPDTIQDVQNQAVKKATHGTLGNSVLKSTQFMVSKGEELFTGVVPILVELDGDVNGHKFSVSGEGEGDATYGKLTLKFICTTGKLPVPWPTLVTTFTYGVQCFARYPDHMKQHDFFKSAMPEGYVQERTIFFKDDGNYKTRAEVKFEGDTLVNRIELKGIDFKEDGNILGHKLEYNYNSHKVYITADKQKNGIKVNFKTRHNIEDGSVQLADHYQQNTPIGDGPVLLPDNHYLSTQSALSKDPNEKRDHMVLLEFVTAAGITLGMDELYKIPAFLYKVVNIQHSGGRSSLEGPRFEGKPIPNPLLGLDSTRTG
On the technique in general: Scintillation proximity formats need no separation of bound from free tracer.

SMILES strings stand for the structures.

A word on the IC50: it is the point on the concentration scale where inhibition reaches its midpoint. The low end stands for greater potency in that assay, the high end for weaker potency in that assay. Consider `N#Cc1cc(Oc2ccc(S(=O)(=O)Nc3ncccn3)cc2C#N)ccc1F` [compound 209], for which the IC50 is > 10000 nM.

Consider `O=S(=O)(Nc1ncccn1)c1cc(Cl)c(Oc2ccc(F)c(F)c2)cc1F` [compound 210], for which the IC50 is > 10000 nM.

`N#Cc1cc(S(=O)(=O)Nc2ncccn2)ccc1Oc1ccc(F)c(F)c1` [compound 211]: the IC50 was > 3000 nM.

Regarding `O=S(=O)(Nc1ncc(F)cn1)c1cc(Cl)c(Oc2ccc(F)c(F)c2)cc1F` [compound 212], the IC50 was > 10000 nM.

On to `N#Cc1cc(Oc2cc(F)c(S(=O)(=O)Nc3ncc(F)cn3)cc2Cl)ccc1F` [compound 214], for which the IC50 was > 1150 nM.

Turning to `N#Cc1ccc(Oc2cc(F)c(S(=O)(=O)Nc3ccc(F)cn3)cc2Cl)cc1F` [compound 215], the IC50 is > 10000 nM.

In the case of `N#Cc1ccc(Oc2cc(F)c(S(=O)(=O)Nc3ncc(F)cn3)cc2Cl)cc1Cl` [compound 226], the IC50 was 1780 nM.

Take `N#Cc1ccc(Oc2cc(F)c(S(=O)(=O)Nc3cccnn3)cc2Cl)cc1Cl` [compound 227]: the IC50 was > 10000 nM.

Consider `N#Cc1ccc(Oc2ccc(S(=O)(=O)Nc3ccc(F)cn3)cc2Cl)cc1F` [compound 228], for which the IC50 turned out to be 244 nM.

Regarding `N#Cc1ccnc(NS(=O)(=O)c2ccc(Oc3ccc(F)c(Cl)c3)c(C#N)c2)c1` [compound 229], the IC50 is 126 nM.

`N#Cc1ccc(NS(=O)(=O)c2ccc(Oc3ccc(F)c(Cl)c3)c(C#N)c2)nc1` [compound 230] had an IC50 of 62 nM.

Consider `N#Cc1cc(S(=O)(=O)Nc2ccc(F)cn2)ccc1Oc1cnc(OC(F)F)c(Cl)c1` [compound 231], for which it took 53 nM to reach half-maximal inhibition (IC50).

As to `N#Cc1ccc(Oc2ccc(S(=O)(=O)Nc3ccc(Cl)cn3)cc2C#N)cc1Cl` [compound 232, 4-(3-chloro-4-cyanophenoxy)-N-(5-chloropyridin-2-yl)-3-cyanobenzenesulfonamide], the midpoint of inhibition, the IC50, lay at 12 nM.

Take `Cc1ccc(NS(=O)(=O)c2ccc(Oc3ccc(C#N)c(Cl)c3)c(C#N)c2)nc1` [compound 233]: the IC50 was determined as 233 nM.

As to `CC(C)(O)c1ccc(Oc2ccc(S(=O)(=O)Nc3ccc(F)cn3)cc2C#N)cc1` [compound 234], half-maximal inhibition (IC50) required 1150 nM.

Consider `Cc1cc(Oc2ccc(S(=O)(=O)Nc3ccc(F)cn3)cc2C#N)cc(C)c1C#N` [compound 235, 3-cyano-4-({4-cyano-3,5-bis[methyl-D3]-2,3-D2-phenyl}oxy)-N-(5-fluoropyridin-2-yl)benzenesulfonamide], for which half-maximal inhibition (IC50) was put at 13 nM.

`N#Cc1cc(S(=O)(=O)Nc2ccc(F)cn2)ccc1Oc1cc(F)c(C#N)c(Cl)c1` [compound 237, 4-(3-chloro-4-cyano-5-fluorophenoxy)-3-cyano-N-(5-fluoropyridin-2-yl)benzenesulfonamide] displayed an IC50 of 8 nM.

On to `Cc1ncc(Oc2ccc(S(=O)(=O)Nc3ccc(F)cn3)cc2C#N)cc1Cl` [compound 238], for which the IC50 was determined as 88 nM.

As to `O=S(=O)(Nc1ccc(F)cn1)c1ccc(Oc2cnc(CO)c(Cl)c2)cc1F` [compound 239, 4-{[5-chloro-6-(hydroxymethyl)pyridin-3-yl]oxy}-2-fluoro-N-(5-fluoropyridin-2-yl)benzenesulfonamide], the IC50 is 2 nM.

The compound `N#Cc1cc(S(=O)(=O)Nc2ccc(F)cn2)ccc1Oc1ccc(Cl)c(CO)c1` [compound 240] displayed an IC50 of 106 nM.

Source of the values: patent publication US9067922B2, “Chemical compounds” (Pfizer Limited, priority 2013, dated 2015).
